Counter-ions that a name gives are not always drawn.
assay: in vitro; conditions: rat, gh3-tre-luc cells, AC50 (uM) modified / 1000

| Structure (SMILES) | CC50 at 24 h |
| --- | --- |
| Nc1cc(Cl)cc(S(=O)(=O)O)c1O [6-Amino-4-chloro-1-phenol-2-sulfonic acid] | > 90 µM |
| CC(C)=CCCC(C)CC(=O)O (stereo not shown) [Citronellic acid] | > 90 µM |
| CCCN(CCC)C(=O)C(CCC(=O)O)NC(=O)c1ccccc1 (stereo not shown) [Proglumide] | > 50 µM |
| Cn1cc(NC(=O)c2cc(NC(=O)c3cc(NC=O)cn3C)cn2C)cc1C(=O)NCCC(=N)N [Stallimycin] | > 50 µM |
| C=CCN1C[C@H](C)N([C@H](c2ccc(C(=O)N(CC)CC)cc2)c2cccc(OC)c2)C[C@H]1C [SNC 80] | 28.8 µM |
| CCSC(=O)N(CC)C1CCCCC1 [Cycloate] | > 90 µM |
| CC(=O)OCC(=O)[C@@]1(O)[C@H](OC(C)=O)C[C@H]2[C@@H]3CCC4=CC(=O)C=C[C@]4(C)[C@@]3(F)[C@@H](O)C[C@@]21C [Triamcinolone diacetate] | > 50 µM |
| CC(c1ccc(O)cc1)(c1ccc(O)cc1)c1ccc(O)cc1 [4,4',4"-Ethane-1,1,1-triyltriphenol] | 55.5 µM |
| OC(c1ccc(Cl)cc1)(c1ccc(Cl)cc1)C(Cl)(Cl)Cl [Dicofol] | 79.5 µM |
| CCO[Si](CCCN=C=O)(OCC)OCC [(3-Isocyanatopropyl)triethoxysilane] | > 90 µM |
| Cc1cccc(C)c1N [2,6-Dimethylaniline] | > 90 µM |
| OC(c1ccccc1)(c1ccccc1)C1CN2CCC1CC2 (stereo not shown) [Quifenadine] | 35.6 µM |
| NCCCC(=O)O [4-Aminobutanoic acid] | > 50 µM |
| CCCSS/C(CCO)=C(/C)N(C=O)Cc1cnc(C)nc1N [Prosultiamine] | 22.5 µM |
| C=C(C)C(=O)Nc1ccc(Cl)c(Cl)c1 [Chloranocryl] | > 90 µM |
| CCCC(C)=O [2-Pentanone] | > 90 µM |
| NCCO [2-Hydroxyethylammonium formate] | > 90 µM |
| O=C1CCCCCCCCCCCCCC1 [Cyclopentadecanone] | 60.9 µM |
| O=C(c1ccc(O)cc1)c1ccc(Cl)cc1 [4-Hydroxy-4'-chlorobenzophenone] | > 90 µM |
| Cc1nc2ccccc2n1Cc1ccc(Cl)cc1 [Chlormidazole] | > 50 µM |
| CC(O)C#CC(C)O (stereo not shown) [Hex-3-yne-2,5-diol] | 50.2 µM |
| NNC(=O)OCc1ccccc1 [Hydrazinecarboxylic acid, phenylmethyl ester] | > 90 µM |
| CC1(C)S[C@@H]2[C@H](NC(=O)Cc3ccccc3)C(=O)N2[C@H]1C(=O)O [Penicillin G potassium] | > 50 µM |
| CCC[C@@H]1C[C@@H](C(=O)N[C@@H]([C@H]2O[C@H](SC)[C@H](OP(=O)(O)O)[C@@H](O)[C@H]2O)[C@H](C)Cl)N(C)C1 [Clindamycin phosphate] | > 50 µM |
| c1ccc2c(c1)ccc1c3ccccc3ccc21 [Chrysene] | > 40 µM |
| O=C(O)c1cc(Cl)cc(Cl)c1 [3,5-Dichlorobenzoic acid] | > 90 µM |
| C=CC(=O)OCC(C)OCC(C)OCC(C)OC(=O)C=C (stereo not shown) [Tripropylene glycol diacrylate] | 36.2 µM |

| Structure (SMILES) | CC50 at 24 h |
| --- | --- |
| Cc1c(Cl)cccc1Nc1ccccc1C(=O)O [Tolfenamic acid] | > 50 µM |
| COC(=O)/C=C/C(C)=C\C=C\C(C)=C\C=C\C=C(C)\C=C\C=C(C)\C=C\C(=O)O [Bixin] | > 90 µM |
| CCOC(=O)Oc1c(OC)cc(C(=O)O[C@@H]2C[C@@H]3CN4CCc5c([nH]c6cc(OC)ccc56)[C@H]4C[C@@H]3[C@H](C(=O)OC)[C@H]2OC)cc1OC [Syrosingopine] | > 20 µM |
| Cc1oc(-c2ccccc2)nc1CCOc1cccc2c1ccn2CCC(=O)O [PD-0333941] | 18.9 µM |
| CCCCCCCCCCCCCCCC(=O)OCC [Ethyl hexadecanoate] | > 90 µM |
| CC1(C)[C@@H]2CC[C@@]1(C)[C@H](OC(=O)CSC#N)C2 [Thanite] | > 50 µM |
| Cc1ccc(S(=O)(=O)NC(=O)NC2CCCC2)cc1 [Tolpentamide] | > 50 µM |
| CCOC(=O)CCCCCCCCC(=O)OCC [Diethyl decanedioate] | > 90 µM |
| CCCCOC(=O)c1ccccc1C(=O)OCc1ccccc1 [Benzyl butyl phthalate] | > 90 µM |
| CC(C)[C@H]1CC[C@H](C(=O)N[C@H](Cc2ccccc2)C(=O)O)CC1 [Nateglinide] | > 50 µM |
| CCOC(=O)c1ccc(N(C)C)cc1 [Parbenate] | > 90 µM |
| CN[C@@]1(c2ccccc2Cl)CCCCC1=O [(+)-Ketamine] | > 50 µM |
| CC(C)c1ccccc1O [2-Isopropylphenol] | > 90 µM |
| CCCCOCCOCCO [2-(2-Butoxyethoxy)ethanol] | > 90 µM |
| O=C1C(O)=C(O)C(=O)C(O)=C1O [Tetroquinone] | > 50 µM |
| O=C(OCc1ccccc1)c1ccccc1 [Benzyl benzoate] | > 90 µM |
| O=c1oc2cc(O)ccc2c2oc3cc(O)ccc3c12 [Coumestrol] | > 90 µM |
| CCN1CCC[C@H]1CNC(=O)c1c(OC)ccc(Br)c1OC [Remoxipride] | > 50 µM |
| O=C(O)COc1cc(Cl)c(Cl)cc1Cl [2,4,5-Trichlorophenoxyacetic acid] | > 90 µM |
| Oc1ccc(C2(c3ccc(O)cc3)CC3CC2C2CCCC32)cc1 (stereo not shown) [4,4'-Octahydro-1H-4,7-methanoindene-5,5-diyldiphenol] | 27.4 µM |
| c1ccccc1 [Benzene] | > 90 µM |
| Cc1[nH]c(=O)c(C#N)cc1-c1ccncc1 [Milrinone] | > 90 µM |
| C=CC1=C(C(=O)O)N2C(=O)[C@@H](NC(=O)/C(=N\OCC(=O)O)c3csc(N)n3)[C@H]2SC1 [Cefixime] | > 20 µM |
| O=C(O)/C=C/C(=O)O [Fumaric acid] | > 100 µM |
| O=C(O)Cc1c[nH]c2ccccc12 [Indole-3-acetic acid] | > 90 µM |
| CCC1NC(=O)c2cc(S(N)(=O)=O)c(Cl)cc2N1 (stereo not shown) [Quinethazone] | > 20 µM |
| Nc1ccc(Cc2ccc(N)c(Cl)c2)cc1Cl [4,4'-Methylenebis(2-chloroaniline)] | 67.7 µM |

| Structure (SMILES) | CC50 at 24 h |
| --- | --- |
| CC(=O)OCC(=O)Nc1cc(C#N)cc(NC(=O)COC(C)=O)c1Cl [Acreozast] | > 50 µM |
| NC(=O)NNC(N)=O [Biurea] | > 90 µM |
| Cc1ccc(C)c2ccccc12 [1,4-Dimethylnaphthalene] | > 90 µM |
| CC1(C)Oc2ccc(C#N)cc2[C@@H](N2CCCC2=O)[C@@H]1O [Levcromakalim] | > 50 µM |
| Cc1nc([N+](=O)[O-])cn1-c1ccc([N+](=O)[O-])cc1 [Nitrefazole] | > 50 µM |
| CCOP(=S)(OCC)Oc1ccc([N+](=O)[O-])cc1 [Parathion] | > 90 µM |
| CCN1CC(CCN2CCOCC2)C(c2ccccc2)(c2ccccc2)C1=O (stereo not shown) [Doxapram hydrochloride] | > 50 µM |
| O=C(O)c1ccccc1-n1cc(C(=O)O)c(=O)c2cc(Nc3c(F)cc(F)cc3Cl)c(Cl)cc21 [AVE9423] | > 90 µM |
| CCN1CCCC1CNC(=O)c1cc(S(=O)(=O)CC)c(N)cc1OC (stereo not shown) [Amisulpride] | > 50 µM |
| O=C(Oc1ccccc1)c1ccccc1O [Phenyl salicylate] | > 50 µM |
| C[C@]12CC[C@H]3[C@@H](CCC4=CC(=O)CC[C@@H]43)[C@@H]1CC[C@@H]2OC(=O)CCc1ccccc1 [Nandrolone phenpropionate] | > 50 µM |
| Nc1c2c(nc3ccccc13)CCCC2 [1,2,3,4-Tetrahydro-9-acridinamine hydrochloride] | > 90 µM |
| CCCCC(CC)CO (stereo not shown) [2-Ethyl-1-hexanol] | > 90 µM |
| Cc1ccc(N(SC(F)(Cl)Cl)S(=O)(=O)N(C)C)cc1 [Tolylfluanid] | 3.13 µM |
| CC(C)[C@@H]1CC[C@@H](C)CC1=O [(2S,5R)-5-Methyl-2-(propan-2-yl)cyclohexanone] | > 90 µM |
| Cn1cc([S+](C)[O-])c(=O)c2ccc(F)cc21 (stereo not shown) [Flosequinan] | > 50 µM |
| CCCCc1ncc(/C=C(\Cc2cccs2)C(=O)O)n1Cc1ccc(C(=O)O)cc1 [Eprosartan mesylate] | > 50 µM |
| CNC(=O)N(c1ccccc1)c1ccccc1 [N'-Methyl-N,N-diphenylurea] | > 90 µM |
| Oc1c(Cl)ccc(Cl)c1Cl [2,3,6-Trichlorophenol] | > 90 µM |
| Nc1ccc(-c2ccc(N)c(N)c2)cc1N [3,3',4,4'-Tetraaminobiphenyl tetrahydrochloride] | 64.7 µM |
| O=C(O)C(Cl)(Cl)Cl [Trichloroacetic acid] | > 90 µM |
| COC[C@@H](c1ccc(C(F)(F)F)cc1)N1CCN(C2(C)CCN(C(=O)c3c(C)ncnc3C)CC2)C[C@@H]1C [Vicriviroc maleate] | > 50 µM |
| CCCCCCCCC(=O)NCc1ccc(O)c(OC)c1 [Nonivamide] | > 90 µM |
| NS(=O)(=O)C(F)(F)C(F)(F)C(F)(F)C(F)(F)C(F)(F)C(F)(F)C(F)(F)C(F)(F)F [Perfluorooctanesulfonamide] | 52.8 µM |
| CCCCCC(C=O)=Cc1ccccc1 [Pentylcinnamaldehyde] | > 90 µM |

same assay, conditions: rat, gh3-tre-luc cells, AC50 (uM) modified / 1000, Tox21_110001=Tox21_111324; viability, 1 nM T3 present, 24 h

| Structure (SMILES) | CC50 at 24 h |
| --- | --- |
| NCCc1cc(O)c(O)cc1O [Oxidopamine hydrochloride] | 45.2 µM |

same assay, conditions: rat, gh3-tre-luc cells, AC50 (uM) modified / 1000, Tox21_110001=Tox21_111742; viability, 1 nM T3 present, 24 h

| Structure (SMILES) | CC50 at 24 h |
| --- | --- |
| c1cc2c(c(N3CCNCC3)c1)OCCO2 [Eltoprazine hydrochloride] | > 50 µM |

same assay, conditions: rat, gh3-tre-luc cells, AC50 (uM) modified / 1000, Tox21_110001=Tox21_112368; viability, 1 nM T3 present, 24 h

| Structure (SMILES) | CC50 at 24 h |
| --- | --- |
| CCON=O [Ethyl nitrite] | > 50 µM |

same assay, conditions: rat, gh3-tre-luc cells, AC50 (uM) modified / 1000, Tox21_110001=Tox21_112833; viability, 1 nM T3 present, 24 h

| Structure (SMILES) | CC50 at 24 h |
| --- | --- |
| CC(=O)OC1(c2ccccc2)CCN(CCc2ccccc2)CC1 [1-(2-Phenylethyl)-4-phenyl-4-acetoxypiperidine] | 84.5 µM |

same assay, conditions: rat, gh3-tre-luc cells, AC50 (uM) modified / 1000, Tox21_110001=Tox21_201112; viability, 1 nM T3 present, 24 h

| Structure (SMILES) | CC50 at 24 h |
| --- | --- |
| CC(Cl)(Cl)C(=O)O [Dalapon-sodium] | > 90 µM |

same assay, conditions: rat, gh3-tre-luc cells, AC50 (uM) modified / 1000, Tox21_110001=Tox21_301412; viability, 1 nM T3 present, 24 h

| Structure (SMILES) | CC50 at 24 h |
| --- | --- |
| Cc1cc(Cl)ccc1N=CN(C)C [Chlordimeform hydrochloride] | > 90 µM |

— article PMC6792352, “Limited Chemical Structural Diversity Found to Modulate Thyroid Hormone Receptor in the Tox21 Chemical Library” (Environmental Health Perspectives, 2019)
